In patent US10111435B2, “Herbicidal compositions containing N-(1,3,4-oxadiazol-2-yl)-aryl carboxylic acid amides” (BAYER CROPSCIENCE AKTIENGESELLSCHAFT, priority 2013, dated 2018):

Legend:
Type in all cases: in vivo
[1] = tested on: Matricaria inodora (MATIN); experiment: greenhouse post-emergence herbicidal efficacy against MATIN
In short: (§1)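 In the greenhouse, herbicidal compositions and their individual active ingredients are applied post-emergence at 300 L/ha. Damage is scored by eye against untreated controls on a 0–100% scale at 14 and 21 days.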

Galium aparine (GALAP) = experiment: greenhouse post-emergence herbicidal efficacy against GALAP
In short: as §1

[2] = tested on: Lolium multiflorum (LOLMU); experiment: greenhouse post-emergence herbicidal efficacy against LOLMU
In short: as §1

Avena fatua (AVEFA) = experiment: greenhouse post-emergence herbicidal efficacy against AVEFA
In short: as §1

Poa annua (POAAN) = experiment: greenhouse post-emergence herbicidal efficacy against POAAN
In short: as §1

Kochia scoparia (KCHSC) = experiment: greenhouse post-emergence herbicidal efficacy against KCHSC
Procedure: (§2) All trials whose results are shown were conducted in a greenhouse by the methodology specified below. The effect of the inventive herbicidal compositions was examined on the following harmful plants 14 and 21 days after application:
(§3) Echinochloa crus-galli (ECHCG), Eleusine indica (ELEIN), Setaria viridis (SETVI), Amaranthus retroflexus (AMARE), Chenopodium album (CHEAL), Kochia scoparia (KCHSC), Solanum nigrum (SOLNI), Avena fatua (AVEFA), Bromus sterilis (BROST), Lolium multiflorum (LOLMU), Phalaris minor (PHAMI), Poa annua (POAAN), Galium aparine (GALAP), Matricaria inodora (MATIN) and Polygonum convolvulus (POLCO).
(§4) The harmful plant seeds were sown in pots (diameter 8 cm) with sandy loam soil and germinated under optimal conditions. The inventive herbicidal compositions or the active ingredients alone were applied post-emergence to the planted pots with a spray volume of 300 L/ha. The trial was conducted in a greenhouse under optimum growth conditions. The herbicidal effects were assessed visually by comparison of untreated and treated plants. The percentages mean: 0%=no effects, 100%=the plants die off completely). The percentages are used to calculate interactions between individual treatments and combination treatments according to S. R. Colby, Weeds 15, pages 20 to 22 (1967).
(§5) The abbreviations mean: • a.i.=active ingredient • E^C=expected value according to Colby (E^C=A+B−A×B/100) • Diff: =difference (%) of measured value from expected value (%) (measured value minus expected value)
(§6) Assessment: • measured value E is greater than E^C:->synergism (+ diff.) • measured value E equals E^C:->additive effect • measured value E is smaller than E^C:->antagonism(− diff.)

Setaria viridis (SETVI) = experiment: greenhouse post-emergence herbicidal efficacy against SETVI
Procedure: as §2, §3, §4, §5, §6

Eleusine indica (ELEIN) = experiment: greenhouse post-emergence herbicidal efficacy against ELEIN; settings: for pest or weed control at 10 g/ha: 10 g of a.i./ha; for pest or weed control at 40 g/ha: 40 g of a.i./ha
Procedure: as §2, §3, §4, §5, §6

Phalaris minor (PHAMI) = experiment: greenhouse post-emergence herbicidal efficacy against PHAMI
In short: as §1

[3] = tested on: Polygonum convolvulus (POLCO); experiment: greenhouse post-emergence herbicidal efficacy against POLCO
In short: as §1

[4] = tested on: Chenopodium album (CHEAL); experiment: greenhouse post-emergence herbicidal efficacy against CHEAL
Procedure: as §2, §3, §4, §5, §6

Bromus sterilis (BROST) = experiment: greenhouse post-emergence herbicidal efficacy against BROST
In short: as §1

[5] = tested on: Echinochloa crus-galli (ECHCG); experiment: greenhouse post-emergence herbicidal efficacy against ECHCG
Procedure: as §2, §3, §4, §5, §6

[6] = tested on: Amaranthus retroflexus (AMARE); experiment: greenhouse post-emergence herbicidal efficacy against AMARE
Procedure: as §2, §3, §4, §5, §6

Solanum nigrum (SOLNI) = experiment: greenhouse post-emergence herbicidal efficacy against SOLNI; settings: 21 days after application
Procedure: as §2, §3, §4, §5, §6

DIGSA = experiment: greenhouse post-emergence herbicidal efficacy against DIGSA
Procedure: as §2, §4, §5, §6

[7] = 14 days after application, 5 g of a.i./ha
[8] = 21 days after application, g of a.i./ha: A1-3 5, pinoxaden 20
[9] = 21 days after application, g of a.i./ha: A1-3 20, pinoxaden 5
[10] = 21 days after application, g of a.i./ha: A1-3 20, pinoxaden 20
[11] = 14 days after application, 20 g of a.i./ha
[12] = 14 days after application, 4 g of a.i./ha
[13] = 21 days after application, 4 g of a.i./ha
[14] = 21 days after application, 1 g of a.i./ha
[15] = 14 days after application, 1 g of a.i./ha
[16] = 21 days after application, g of a.i./ha: A1-34 50, iodosulfuron-methyl-sodium 0.5
[17] = 14 days after application, 50 g of a.i./ha
[18] = 21 days after application, g of a.i./ha: A1-34 200, iodosulfuron-methyl-sodium 2
[19] = 14 days after application, 200 g of a.i./ha
[20] = 21 days after application, 25 g of a.i./ha
[21] = 21 days after application, g of a.i./ha: A1-34 50, iodosulfuron-methyl-sodium 2
[22] = 21 days after application, g of a.i./ha: A2-1 12.5, fluroxypyr 20
[23] = 21 days after application, g of a.i./ha: A2-1 12.5, fluroxypyr 80
[24] = 21 days after application, g of a.i./ha: A2-1 50, fluroxypyr 20
[25] = 21 days after application, g of a.i./ha: A2-1 50, fluroxypyr 80
[26] = 14 days after application, 12.5 g of a.i./ha
[27] = 14 days after application, 40 g of a.i./ha
[28] = 21 days after application, 40 g of a.i./ha
[29] = 14 days after application, 10 g of a.i./ha
[30] = Eleusine indica, post-emergence, 336 h, 14 days after application
[31] = Eleusine indica, post-emergence, 504 h, 21 days after application
[32] = 21 days after application, 0.5 g of a.i./ha
[33] = 21 days after application, 2 g of a.i./ha
[34] = 21 days after application, 0.25 g of a.i./ha

COCc1nnc(NC(=O)c2ccc(C(F)(F)F)c(S(C)(=O)=O)c2C)o1 [A1-3]
Efficacy [1, 7]: 30%
Efficacy (Galium aparine (GALAP); [7]): 40%
Efficacy (Galium aparine (GALAP); [8]): 5%
Efficacy (Galium aparine (GALAP); [9]): 5%
Efficacy (Galium aparine (GALAP); [10]): 5%
Efficacy [2, 7]: 0%
Efficacy [2, 8]: 0%
Efficacy [2, 9]: 5%
Efficacy (Avena fatua (AVEFA); [7]): 0%
Efficacy (Avena fatua (AVEFA); [11]): 0%
Efficacy (Poa annua (POAAN); [7]): 0%
Efficacy (Poa annua (POAAN); [11]): 5%
Efficacy (Poa annua (POAAN); [8]): 0%
Efficacy (Poa annua (POAAN); [10]): 3%
Efficacy (Kochia scoparia (KCHSC); [12]): 40%
Efficacy (Kochia scoparia (KCHSC); [13]): 20%
Efficacy (Setaria viridis (SETVI); [13]): 20%
Efficacy (Setaria viridis (SETVI); [14]): 10%
Efficacy (Eleusine indica (ELEIN); [12]): 50%
Efficacy (Eleusine indica (ELEIN); [13]): 20%
Efficacy (Phalaris minor (PHAMI); [7]): 0%
Efficacy (Phalaris minor (PHAMI); [11]): 20%
Efficacy (Phalaris minor (PHAMI); [9]): 5%
Efficacy (Phalaris minor (PHAMI); [10]): 5%
Efficacy [3, 7]: 0%
Efficacy [3, 11]: 10%
Efficacy [3, 9]: 5%
Efficacy [3, 10]: 5%
Efficacy [4, 14]: 20%
Efficacy (Bromus sterilis (BROST); [7]): 0%
Efficacy (Bromus sterilis (BROST); [11]): 5%
Efficacy [5, 15]: 0%
Efficacy [5, 12]: 40%
Efficacy [5, 13]: 10%
Efficacy [5, 14]: 0%

Cc1c(C(=O)Nc2nnc(C3CC3)o2)ccc(C(F)(F)F)c1[S+](C)[O-] (centres unmarked) [A1-34]
Efficacy [1, 16]: 50%
Efficacy (Galium aparine (GALAP); [17]): 50%
Efficacy (Galium aparine (GALAP); [16]): 20%
Efficacy (Galium aparine (GALAP); [18]): 40%
Efficacy [2, 17]: 5%
Efficacy [2, 19]: 30%
Efficacy (Avena fatua (AVEFA); [18]): 5%
Efficacy (Poa annua (POAAN); [19]): 85%
Efficacy [6, 20]: 30%
Efficacy ([6]; 21 days after application, 100 g of a.i./ha): 50%
Efficacy (Phalaris minor (PHAMI); [19]): 60%
Efficacy (Solanum nigrum (SOLNI); 25 g of a.i./ha): 10%
Efficacy [3, 19]: 30%
Efficacy [3, 16]: 0%
Efficacy [3, 21]: 0%
Efficacy [4, 20]: 70%
Efficacy (Bromus sterilis (BROST); [17]): 10%
Efficacy (Bromus sterilis (BROST); [21]): 15%
Efficacy (Bromus sterilis (BROST); [18]): 35%

Cc1nnc(NC(=O)c2ccc(C(F)(F)F)nc2C)o1 [A2-1]
Efficacy [1, 22]: 80%
Efficacy [1, 23]: 80%
Efficacy [1, 24]: 85%
Efficacy [1, 25]: 85%
Efficacy [2, 26]: 0%
Efficacy [2, 17]: 0%
Efficacy [2, 25]: 0%
Efficacy (Avena fatua (AVEFA); [26]): 0%
Efficacy (Avena fatua (AVEFA); [17]): 0%
Efficacy (Avena fatua (AVEFA); [23]): 0%
Efficacy (Avena fatua (AVEFA); [25]): 0%
Efficacy (Poa annua (POAAN); [26]): 15%
Efficacy (Poa annua (POAAN); [22]): 0%
Efficacy (Poa annua (POAAN); [23]): 0%
Efficacy (Kochia scoparia (KCHSC); [13]): 40%
Efficacy (Setaria viridis (SETVI); [13]): 20%
Efficacy (Eleusine indica (ELEIN); [13]): 60%
Efficacy (Phalaris minor (PHAMI); [26]): 15%
Efficacy (Phalaris minor (PHAMI); [23]): 0%
Efficacy (Phalaris minor (PHAMI); [25]): 15%
Efficacy (Solanum nigrum (SOLNI); 1 g of a.i./ha): 10%
Efficacy [3, 17]: 70%
Efficacy [3, 22]: 20%
Efficacy [3, 24]: 60%
Efficacy (Bromus sterilis (BROST); [26]): 0%
Efficacy (Bromus sterilis (BROST); [25]): 0%
Efficacy [5, 12]: 50%
Efficacy [5, 13]: 40%

COc1c(Cl)ccc(Cl)c1C(=O)O [dicamba]
Efficacy [6, 27]: 65%
Efficacy [6, 28]: 65%
Efficacy (DIGSA; [27]): 0%
Efficacy (DIGSA; [28]): 0%
Efficacy (Setaria viridis (SETVI); [27]): 0%
Efficacy (Setaria viridis (SETVI); [29]): 0%
Efficacy (Setaria viridis (SETVI); 21 days after application, 10 g of a.i./ha): 0%
Efficacy (Setaria viridis (SETVI); [28]): 0%
pest or weed control at 10 g/ha (Eleusine indica (ELEIN); [30]): 10%
pest or weed control at 40 g/ha (Eleusine indica (ELEIN); [30]): 10%
pest or weed control at 10 g/ha (Eleusine indica (ELEIN); [31]): 0%
pest or weed control at 40 g/ha (Eleusine indica (ELEIN); [31]): 0%
Efficacy [4, 29]: 50%

COc1cc(OC)nc(NC(=O)NS(=O)(=O)c2cc(NC=O)ccc2C(=O)N(C)C)n1 [foramsulfuron]
Efficacy (DIGSA; [12]): 40%
Efficacy (Kochia scoparia (KCHSC); [15]): 80%
Efficacy (Kochia scoparia (KCHSC); [12]): 90%
Efficacy (Kochia scoparia (KCHSC); [13]): 80%
Efficacy (Setaria viridis (SETVI); [15]): 40%
Efficacy (Setaria viridis (SETVI); [13]): 50%
Efficacy (Setaria viridis (SETVI); [14]): 20%
pest or weed control at 1 g/ha (Eleusine indica (ELEIN); Eleusine indica, post-emergence, 504 h, 21 days after application, 1 g of a.i./ha): 60%
Efficacy [4, 15]: 50%
Efficacy [5, 15]: 60%
Efficacy [5, 14]: 30%

COc1c(Cl)ccc(-c2cc(N)c(Cl)c(C(=O)O)n2)c1F [halauxifen]
Efficacy (Kochia scoparia (KCHSC); [32]): 20%
Efficacy (Kochia scoparia (KCHSC); [33]): 30%
Efficacy (Setaria viridis (SETVI); [33]): 0%
Efficacy (Eleusine indica (ELEIN); [32]): 0%
Efficacy (Eleusine indica (ELEIN); [33]): 0%
Efficacy (Solanum nigrum (SOLNI); 0.5 g of a.i./ha): 50%
Efficacy ([5]; 14 days after application, 0.5 g of a.i./ha): 0%
Efficacy ([5]; 14 days after application, 2 g of a.i./ha): 10%
Efficacy [5, 33]: 20%

COC(=O)c1csc(C)c1S(=O)(=O)NC(=O)n1nc(OC)n(C)c1=O [thiencarbazone-methyl]
Efficacy [6, 34]: 60%
Efficacy (Solanum nigrum (SOLNI); 1 g of a.i./ha): 50%
Efficacy [4, 34]: 50%
Efficacy [4, 14]: 70%
